Patent US8563550B2, “Imidazolothiadiazoles for use as protein kinase inhibitors” (Centro Nacional de Investigaciones Oncologicas (CNIO), priority 2007, dated 2013)

Molecular target: T1, PIM-1 (Homo sapiens, UniProt P11309)
T1 construct: histidine tag (C); made in house
Experiment: PIM-1 biochemical assay (ADP Hunter assay kit)
Settings: compound concentration 10 μM; approximate values
From the text: The biochemical assay to measure PIM-1 activity relies on the ADP Hunter assay kit (DiscoveRx Corp., Cat. #90-0077), that determines the amount of ADP as direct product of the kinase enzyme activity.
The enzyme has been expressed and purified in-house as a recombinant human protein with a C-terminal histidine tag. The protein is active and stable.
Assay conditions were as indicated by the kit manufacturers with the following adaptations for the kinase activity step: • Kinase assay buffer and assay volume stay as recommended (15 mM HEPES, pH 7.4, 20 mM NaCl, 1 mM EGTA, 0.02% Tween 20, 10 mM MgCl2 and 0.1 mg/ml bovine γ-globulins/75 μl assay volume) • Incubation time and temperature: 60 min at 30° C. • PIM-1 concentration: 50 pg/μl • ATP concentration: 100 μM • PIM-1 substrate peptide: PIMtide (ARKRRRHPSGPPTA) • Peptide concentration: 60 μM • Positive control for kinase activity inhibition: 1-10 μM Staurosporine • DMSO concentration have to stay below 2% during the kinase reaction
Assays were performed in either 96 or 384-well plates. The final outcome of the coupled reactions provided by the kit is the release of the fluorescent product Resorufin and has been measured with a multilabel HTS counter VICTOR V (PerkinElmer) using an excitation filter at 544 nm and an emission filter at 580 nm.

T1 sequence (P11309 whole entry): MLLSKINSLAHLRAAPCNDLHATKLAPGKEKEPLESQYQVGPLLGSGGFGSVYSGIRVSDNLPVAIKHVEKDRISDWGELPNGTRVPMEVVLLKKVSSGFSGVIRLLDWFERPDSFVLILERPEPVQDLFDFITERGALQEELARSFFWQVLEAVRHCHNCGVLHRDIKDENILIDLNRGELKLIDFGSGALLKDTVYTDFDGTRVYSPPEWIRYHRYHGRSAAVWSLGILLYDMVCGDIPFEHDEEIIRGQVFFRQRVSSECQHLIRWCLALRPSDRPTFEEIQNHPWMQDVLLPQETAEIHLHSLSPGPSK

| Compound | Percentage Inhibition of PIM-1 at 10 μM [%] |
| --- | --- |
| 4-{2-[(Furan-2-ylmethyl)-amino]-imidazo[2,1-b][1,3,4]thiadiazol-5-yl}-phenol [34(40)] | 100 |
| FC(F)(F)Oc1cccc(-c2cnc3sc(NCC4CC4)nn23)c1 [34(39), Cyclopropylmethyl-[5-(3-trifluoromethoxy-phenyl)-imidazo[2,1-b][1,3,4]thia-diazol-2-yl]-amine] | 82 |

Same assay, conditions: compound concentration 10 μM; approximate values; read-out: Percentage Inhibition of PIM-1 at 10 μM

| Compound | inhibition at 10 µM [%] |
| --- | --- |
| Fc1ccc(CNc2nn3c(-c4cccnc4)cnc3s2)cc1 [34(57), (4-Fluoro-benzyl)-(5-pyridin-3-yl-imidazo[2,1-b][1,3,4]thiadiazol-2-yl)-amine] | 73 |
| Cc1cc(-c2cnc3sc(NCC4CC4)nn23)cc(C)c1O [34(58), 4-[2-(Cyclopropylmethyl-amino)-imidazo[2,1-b][1,3,4]thiadiazol-5-yl]-2,6-dimethylphenol] | 97 |
| CC(C)CNc1nn2c(-c3cccc(N(C)C)c3)cnc2s1 [34(3), [5-(3-Dimethylamino-phenyl)-imidazo[2,1-b][1,3,4]thiadiazol-2-yl]-isobutyl-amine] | 97 |
| CC(=O)c1cccc(-c2cnc3sc(NCc4cccs4)nn23)c1 [34(22), 1-(3-{2-[(Thiophen-2-ylmethyl)-amino]-imidazo[2,1-b][1,3,4]thiadiazol-5-yl}-phenyl)-ethanone] | 82 |
| Clc1cccc(-c2cnc3sc(NCCc4ccccn4)nn23)c1 [34(5), [5-(3-Chloro-phenyl)-imidazo[2,1-b][1,3,4]thiadiazol-2-yl]-(2-pyridin-2-yl-ethyl)-amine] | 98 |
| c1ccc2cc(-c3cnc4sc(NCC5CC5)nn34)ccc2c1 [34(10), Cyclopropylmethyl-(5-naphthalen-2-yl-imidazo[2,1-b][1,3,4]thiadiazol-2-yl)-amine] | 77 |
| COCCNc1nn2c(-c3ccc4ccccc4c3)cnc2s1 [34(8), (2-Methoxy-ethyl)-(5-naphthalen-2-yl-imidazo[2,1-b][1,3,4]thiadiazol-2-yl)-amine] | 98 |
| CC(=O)c1cccc(-c2cnc3sc(NCCN4CCOCC4)nn23)c1 [34(65), 1-{3-[2-(2-Morpholin-4-yl-ethylamino)-imidazo[2,1-b][1,3,4]thiadiazol-5-yl]-phenyl}-ethanone] | 77 |
| COCCNc1nn2c(-c3ccc(F)c(Cl)c3)cnc2s1 [34(14), [5-(3-Chloro-4-fluoro-phenyl)-imidazo[2,1-b][1,3,4]thiadiazol-2-yl]-(2-meth-oxyethyl)-amine] | 96 |
| COc1ccc(CNc2nn3c(-c4ccc(F)c(Cl)c4)cnc3s2)cc1 [34(33), [5-(3-Chloro-4-fluoro-phenyl)-imidazo[2,1-b][1,3,4]thiadiazol-2-yl]-(4-meth-oxybenzyl)-amine] | 84 |

Second part, the compound after the results:

| inhibition at 10 µM [%] | Compound |
| --- | --- |
| 99 | CN(C)c1cccc(-c2cnc3sc(NCC4CCOCC4)nn23)c1 [34(16), [5-(3-Dimethylamino-phenyl)-imidazo[2,1-b][1,3,4]thiadiazol-2-yl]-(tetrahydro-pyran-4-ylmethyl)-amine] |
| 82 | Oc1ccc(-c2cnc3sc(Nc4ccc(F)cc4)nn23)cc1 [Example 18, 4-[2-(4-Fluoro-phenylamino)-imidazo[2,1-b][1,3,4]thiadiazol-5-yl]-phenol] |
| 71 | c1ccc(OCCNc2nn3c(-c4ccc5ccccc5c4)cnc3s2)cc1 [34(4), (5-Naphthalen-2-yl-imidazo[2,1-b][1,3,4]thiadiazol-2-yl)-(2-phenoxy-ethyl)-amine] |
| 89 | CN(C)c1cccc(-c2cnc3sc(Oc4ccc(F)cc4)nn23)c1 [Example 15, {3-[2-(4-Fluoro-phenoxy)-imidazo[2,1-b][1,3,4]thiadiazol-5-yl]-phenyl}-dimethyl-amine] |
| 83 | Fc1ccc(-c2cnc3sc(-c4ccccc4)nn23)cc1 [Example 4, 5-(4-Fluorophenyl)-2-phenyl-imidazo[2,1-b][1,3,4]thiadiazole] |
| 58 | COc1ccc(CNc2nn3c(-c4ccc5ccccc5c4)cnc3s2)cc1 [34(12), (4-Methoxy-benzyl)-(5-naphthalen-2-yl-imidazo[2,1-b][1,3,4]thiadiazol-2-yl)-amine] |
